Test results: paper PMC10046369, “Low-Affinity/High-Selectivity Dopamine Transport Inhibition Sufficient to Rescue Cognitive Functions in the Aging Rat” (Biomolecules, 2023)

Tests used:
Assay in all cases: biochemical
Set-up in all cases: KINOMEscan competition binding panel, per cent of control
Details in all cases: read-out: %Ctrl @ 2800nM
PAK6 = PAK6 (Homo sapiens, UniProt Q9NQU5)
How it was run: (§1)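 Values are expressed as percent of control, calculated as ((test − positive control)/(negative control − positive control)) × 100, so lower numbers mean stronger hits. Binding was measured by KINOMEscan competition assay in a 450-kinase human panel including disease mutants, using the contractor's validated protocol.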

NEK11 = NEK11 (Homo sapiens, UniProt Q8NG66)
How it was run: as §1

ADCK3 = target: T1, ADCK3 (Homo sapiens, UniProt Q8NI60)
T1 construct: gene COQ8A
How it was run: as §1

[1] = target: T2, ABL1(T315I)-nonphosphorylated (Homo sapiens, UniProt P00519, T315I)
T2 construct: nonphosphorylated
How it was run: as §1

EIF2AK1 = EIF2AK1 (Homo sapiens, UniProt Q9BQI3)
Sequence of EIF2AK1 (Q9BQI3 whole entry): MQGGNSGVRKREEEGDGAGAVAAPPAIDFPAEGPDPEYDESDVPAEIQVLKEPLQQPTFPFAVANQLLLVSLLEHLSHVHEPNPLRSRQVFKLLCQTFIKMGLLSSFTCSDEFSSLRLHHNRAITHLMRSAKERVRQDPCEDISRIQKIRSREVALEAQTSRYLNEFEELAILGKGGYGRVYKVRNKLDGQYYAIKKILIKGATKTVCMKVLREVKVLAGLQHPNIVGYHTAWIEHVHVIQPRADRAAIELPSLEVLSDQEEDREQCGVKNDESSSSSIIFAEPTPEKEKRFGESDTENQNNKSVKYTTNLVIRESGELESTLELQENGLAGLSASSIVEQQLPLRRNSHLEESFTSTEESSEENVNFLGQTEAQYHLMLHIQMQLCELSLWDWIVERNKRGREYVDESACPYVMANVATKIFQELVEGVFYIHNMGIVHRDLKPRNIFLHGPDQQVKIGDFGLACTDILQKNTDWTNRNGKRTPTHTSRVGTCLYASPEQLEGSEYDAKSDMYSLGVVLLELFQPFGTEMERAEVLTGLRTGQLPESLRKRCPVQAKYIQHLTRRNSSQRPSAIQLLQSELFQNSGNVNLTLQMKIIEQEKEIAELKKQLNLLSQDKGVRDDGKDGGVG
How it was run: as §1

TEC = TEC (Homo sapiens, UniProt P42680)
Sequence of TEC (P42680 whole entry): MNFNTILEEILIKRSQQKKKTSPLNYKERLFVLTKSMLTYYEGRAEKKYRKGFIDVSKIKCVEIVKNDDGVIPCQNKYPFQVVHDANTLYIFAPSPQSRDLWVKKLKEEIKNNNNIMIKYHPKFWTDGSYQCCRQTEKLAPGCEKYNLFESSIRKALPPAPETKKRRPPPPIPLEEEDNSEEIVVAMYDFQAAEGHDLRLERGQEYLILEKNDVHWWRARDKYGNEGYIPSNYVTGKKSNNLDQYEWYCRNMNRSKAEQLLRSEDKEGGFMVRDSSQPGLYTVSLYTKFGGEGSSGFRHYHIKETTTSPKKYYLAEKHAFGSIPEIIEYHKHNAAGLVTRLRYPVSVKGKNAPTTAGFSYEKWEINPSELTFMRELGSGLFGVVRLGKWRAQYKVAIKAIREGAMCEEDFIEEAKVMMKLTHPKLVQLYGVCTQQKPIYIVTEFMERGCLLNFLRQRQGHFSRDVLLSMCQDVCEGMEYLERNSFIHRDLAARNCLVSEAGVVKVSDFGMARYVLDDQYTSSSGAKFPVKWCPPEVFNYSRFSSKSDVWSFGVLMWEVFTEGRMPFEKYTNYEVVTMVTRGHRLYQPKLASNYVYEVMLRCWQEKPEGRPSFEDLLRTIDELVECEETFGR
How it was run: as §1

MST1R = MST1R (Homo sapiens, UniProt Q04912)
How it was run: as §1

MST1 = target: T3, MST1 (Homo sapiens, UniProt Q13043)
T3 construct: gene STK4
How it was run: as §1

BTK = BTK (Homo sapiens, UniProt Q06187)
How it was run: as §1

GRK4 = GRK4 (Homo sapiens, UniProt P32298)
How it was run: as §1

MARK2 = MARK2 (Homo sapiens, UniProt Q7KZI7)
How it was run: as §1

FES = FES (Homo sapiens, UniProt P07332)
Sequence of FES (P07332 whole entry): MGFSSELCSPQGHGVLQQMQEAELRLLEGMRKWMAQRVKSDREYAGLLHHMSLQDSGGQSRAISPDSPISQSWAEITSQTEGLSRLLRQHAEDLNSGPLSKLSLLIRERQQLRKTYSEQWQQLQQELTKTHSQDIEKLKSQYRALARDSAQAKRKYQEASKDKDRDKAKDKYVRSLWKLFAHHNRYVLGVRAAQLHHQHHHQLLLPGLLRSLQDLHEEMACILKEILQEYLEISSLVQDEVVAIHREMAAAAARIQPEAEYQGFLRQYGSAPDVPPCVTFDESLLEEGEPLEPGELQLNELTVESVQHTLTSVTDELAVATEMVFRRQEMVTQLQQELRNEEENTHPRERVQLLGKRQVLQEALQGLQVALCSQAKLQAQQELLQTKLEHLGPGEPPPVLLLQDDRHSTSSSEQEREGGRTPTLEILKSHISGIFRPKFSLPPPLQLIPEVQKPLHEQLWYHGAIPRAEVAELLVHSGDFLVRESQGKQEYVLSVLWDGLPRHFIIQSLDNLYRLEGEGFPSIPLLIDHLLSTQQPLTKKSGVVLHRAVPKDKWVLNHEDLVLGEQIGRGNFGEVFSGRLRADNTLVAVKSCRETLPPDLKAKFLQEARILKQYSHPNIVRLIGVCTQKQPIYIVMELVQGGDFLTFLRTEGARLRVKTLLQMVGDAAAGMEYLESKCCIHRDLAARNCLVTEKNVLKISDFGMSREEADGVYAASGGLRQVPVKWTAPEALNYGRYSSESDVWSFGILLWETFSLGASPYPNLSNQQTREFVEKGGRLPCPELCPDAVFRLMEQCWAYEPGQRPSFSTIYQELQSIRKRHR
How it was run: as §1

CAMK1B = target: T4, CAMK1B (Homo sapiens, UniProt Q6P2M8)
T4 construct: gene PNCK
T4 sequence (Q6P2M8 whole entry): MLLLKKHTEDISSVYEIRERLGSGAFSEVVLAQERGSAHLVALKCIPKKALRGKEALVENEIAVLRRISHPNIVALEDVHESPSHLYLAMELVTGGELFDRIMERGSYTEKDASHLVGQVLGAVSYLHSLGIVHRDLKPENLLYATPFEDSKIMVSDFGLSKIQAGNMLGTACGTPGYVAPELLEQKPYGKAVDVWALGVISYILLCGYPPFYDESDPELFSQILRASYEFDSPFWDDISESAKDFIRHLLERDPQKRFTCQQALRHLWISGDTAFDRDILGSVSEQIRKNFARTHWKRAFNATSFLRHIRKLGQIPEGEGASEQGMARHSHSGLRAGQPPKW
How it was run: as §1

SGK3 = SGK3 (Homo sapiens, UniProt Q96BR1)
How it was run: as §1

GCN2(Kin.Dom.2,S808G) = target: T5, GCN2(Kin.Dom.2,S808G) (Homo sapiens, UniProt Q9P2K8, S808G)
T5 construct: gene EIF2AK4; Kin.Dom.2
How it was run: as §1

ERK8 = target: T6, ERK8 (Homo sapiens, UniProt Q8TD08)
T6 construct: gene MAPK15
How it was run: as §1

ERK1 = target: T7, ERK1 (Homo sapiens, UniProt P27361)
T7 construct: gene MAPK3
How it was run: as §1

CSNK1G3 = CSNK1G3 (Homo sapiens, UniProt Q9Y6M4)
How it was run: as §1

PFTK1 = target: T8, PFTK1 (Homo sapiens, UniProt O94921)
T8 construct: gene CDK14
T8 sequence (O94921 whole entry): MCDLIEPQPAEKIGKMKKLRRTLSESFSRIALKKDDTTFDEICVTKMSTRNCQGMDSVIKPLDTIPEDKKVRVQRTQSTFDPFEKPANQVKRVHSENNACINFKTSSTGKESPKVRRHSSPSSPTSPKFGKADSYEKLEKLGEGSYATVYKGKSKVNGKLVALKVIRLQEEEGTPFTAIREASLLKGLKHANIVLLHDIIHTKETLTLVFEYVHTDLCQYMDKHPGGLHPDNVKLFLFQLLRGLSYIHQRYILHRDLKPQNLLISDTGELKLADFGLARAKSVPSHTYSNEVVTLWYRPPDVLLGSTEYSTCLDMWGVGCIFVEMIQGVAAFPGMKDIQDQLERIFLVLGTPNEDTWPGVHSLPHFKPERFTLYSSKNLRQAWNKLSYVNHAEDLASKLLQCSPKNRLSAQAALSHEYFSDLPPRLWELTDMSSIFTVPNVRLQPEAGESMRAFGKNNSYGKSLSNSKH
How it was run: as §1

AKT2 = AKT2 (Homo sapiens, UniProt P31751)
How it was run: as §1

CIT = CIT (Homo sapiens, UniProt O14578)
Sequence of CIT (O14578 whole entry): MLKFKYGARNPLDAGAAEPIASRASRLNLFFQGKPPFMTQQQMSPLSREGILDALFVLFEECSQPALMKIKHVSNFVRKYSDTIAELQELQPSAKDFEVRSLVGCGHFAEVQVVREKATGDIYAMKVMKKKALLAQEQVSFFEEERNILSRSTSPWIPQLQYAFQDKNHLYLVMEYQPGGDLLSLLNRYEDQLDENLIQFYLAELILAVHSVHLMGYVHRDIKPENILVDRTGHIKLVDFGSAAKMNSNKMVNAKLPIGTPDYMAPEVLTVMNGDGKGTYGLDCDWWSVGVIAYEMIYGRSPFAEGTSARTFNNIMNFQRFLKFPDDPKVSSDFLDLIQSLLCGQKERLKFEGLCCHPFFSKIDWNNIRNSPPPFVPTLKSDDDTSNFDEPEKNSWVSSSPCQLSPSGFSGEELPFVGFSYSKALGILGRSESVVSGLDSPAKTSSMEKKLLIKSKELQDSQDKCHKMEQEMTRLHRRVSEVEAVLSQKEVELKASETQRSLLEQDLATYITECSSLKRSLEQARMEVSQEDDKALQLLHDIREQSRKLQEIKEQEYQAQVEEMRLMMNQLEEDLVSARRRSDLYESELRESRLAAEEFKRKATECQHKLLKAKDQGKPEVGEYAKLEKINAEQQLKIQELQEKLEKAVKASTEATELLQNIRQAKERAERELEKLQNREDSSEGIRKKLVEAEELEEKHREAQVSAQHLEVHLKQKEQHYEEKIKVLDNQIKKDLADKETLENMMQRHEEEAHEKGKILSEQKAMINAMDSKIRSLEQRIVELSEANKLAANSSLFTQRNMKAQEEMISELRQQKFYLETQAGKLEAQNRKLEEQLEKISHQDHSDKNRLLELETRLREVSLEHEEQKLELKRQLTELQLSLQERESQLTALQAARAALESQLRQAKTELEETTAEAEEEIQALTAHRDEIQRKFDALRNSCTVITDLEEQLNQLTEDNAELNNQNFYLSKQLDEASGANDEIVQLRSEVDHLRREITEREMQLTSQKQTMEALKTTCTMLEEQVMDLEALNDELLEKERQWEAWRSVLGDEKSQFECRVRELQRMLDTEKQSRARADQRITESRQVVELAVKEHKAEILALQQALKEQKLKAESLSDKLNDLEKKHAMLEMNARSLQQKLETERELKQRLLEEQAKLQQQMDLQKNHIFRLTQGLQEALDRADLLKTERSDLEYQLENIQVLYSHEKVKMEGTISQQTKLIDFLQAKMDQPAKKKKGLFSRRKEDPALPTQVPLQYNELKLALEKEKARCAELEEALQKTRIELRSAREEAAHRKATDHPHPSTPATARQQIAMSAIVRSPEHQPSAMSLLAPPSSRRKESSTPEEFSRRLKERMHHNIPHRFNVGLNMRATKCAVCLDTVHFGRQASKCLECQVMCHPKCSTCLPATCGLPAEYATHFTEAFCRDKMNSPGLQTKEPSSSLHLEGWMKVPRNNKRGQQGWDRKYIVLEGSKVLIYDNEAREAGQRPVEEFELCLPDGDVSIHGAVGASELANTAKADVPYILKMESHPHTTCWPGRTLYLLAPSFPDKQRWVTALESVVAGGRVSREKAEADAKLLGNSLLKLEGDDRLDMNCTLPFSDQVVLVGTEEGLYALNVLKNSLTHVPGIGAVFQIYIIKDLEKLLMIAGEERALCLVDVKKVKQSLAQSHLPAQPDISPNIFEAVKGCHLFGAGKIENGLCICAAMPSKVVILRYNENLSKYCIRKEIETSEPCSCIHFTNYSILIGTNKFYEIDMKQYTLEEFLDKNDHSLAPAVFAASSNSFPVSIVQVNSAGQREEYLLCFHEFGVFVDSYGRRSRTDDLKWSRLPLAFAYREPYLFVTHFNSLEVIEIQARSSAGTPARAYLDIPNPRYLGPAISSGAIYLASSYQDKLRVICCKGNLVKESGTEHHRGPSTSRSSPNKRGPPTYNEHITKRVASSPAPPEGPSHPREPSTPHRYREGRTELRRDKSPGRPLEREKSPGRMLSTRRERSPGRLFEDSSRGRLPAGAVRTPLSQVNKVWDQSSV
How it was run: as §1

KIT(A829P) = KIT(A829P) (Homo sapiens, UniProt P10721, A829P)
How it was run: as §1

CSNK2A1 = CSNK2A1 (Homo sapiens, UniProt P68400)
How it was run: as §1

BRAF = BRAF (Homo sapiens, UniProt P15056)
How it was run: as §1

ABL1-phosphorylated = target: T9, ABL1-phosphorylated (Homo sapiens, UniProt P00519)
T9 construct: phosphorylated
How it was run: as §1

LZK = target: T10, LZK (Homo sapiens, UniProt O43283)
T10 construct: gene MAP3K13
How it was run: as §1

`[O-][S@@+](Cc1cncs1)C(c1ccccc1)c1ccccc1` [S-CE-123, (S)-5-((Benzhydrylsulfinyl)Methyl)Thiazole] was tested, and the remaining binding at 2.8 µM (PAK6) was 100%, the remaining binding at 2.8 µM (NEK11) was 100% and the remaining binding at 2.8 µM (ADCK3) was 87%. For the same molecule, the remaining binding at 2.8 µM [1] was 100%, the remaining binding at 2.8 µM (EIF2AK1) was 100% and the remaining binding at 2.8 µM (TEC) was 100%. The remaining binding at 2.8 µM (MST1R) was 93%, the remaining binding at 2.8 µM (MST1) was 97% and the remaining binding at 2.8 µM (BTK) was 100%. It also gave a remaining binding at 2.8 µM (GRK4) of 73%, a remaining binding at 2.8 µM (MARK2) of 100% and a remaining binding at 2.8 µM (FES) of 95%. It also gave a remaining binding at 2.8 µM (CAMK1B) of 100%, a remaining binding at 2.8 µM (SGK3) of 100% and a remaining binding at 2.8 µM (GCN2(Kin.Dom.2,S808G)) of 100%. For the same molecule, the remaining binding at 2.8 µM (ERK8) was 100%, the remaining binding at 2.8 µM (ERK1) was 91% and the remaining binding at 2.8 µM (CSNK1G3) was 98%. For the same molecule, the remaining binding at 2.8 µM (PFTK1) was 92%, the remaining binding at 2.8 µM (AKT2) was 87% and the remaining binding at 2.8 µM (CIT) was 74%. For the same molecule, the remaining binding at 2.8 µM (KIT(A829P)) was 98%, the remaining binding at 2.8 µM (CSNK2A1) was 88% and the remaining binding at 2.8 µM (BRAF) was 100%. It also gave a remaining binding at 2.8 µM (ABL1-phosphorylated) of 100% and a remaining binding at 2.8 µM (LZK) of 94%.
